{
  "source": "patent US10746637B2",
  "about": "“Aldehyde scavenging agent for retrieving elements from fixed tissue” (University of Houston System, priority 2013, dated 2020)",
  "key": {"blood vessels": {"test_system": "blood vessels", "assay": "Antigen retrieval in paraformaldehyde fixed vascular tissue, visualization of blood vessels", "details": "paraformaldehyde fixed tissue heated in solution of compound (FIGS. 4A-4E)", "from_the_text": "Paraformaldehyde fixed tissue samples are heated in solutions of compounds prepared as described in Example 1 and the blood vessels in the tissue are visualized."}, "ACTH (18-39) peptide": {"test_system": "ACTH (18-39) peptide", "assay": "Mass spectrometry of formalin treated ACTH (18-39) peptide after heating with formaldehyde scavenging agents", "details": "5% compound, 98° C. for 45 minutes as printed with the result (method says 90° C.)", "experimental": "ACTH (18-39) peptide is treated with formalin at room temperature for 48 hours (FIG. 12A). […] The composition of the formalin treated ACTH after each treatment is analyzed using mass spectrometry. The results shown in FIGS. 12A-12D are used to investigate the ability of the agents to reverse formaldehyde adducts. […] Only a small amount of ACTH with 3 methylene units is detected."}, "Collagen IV [1]": {"test_system": "Collagen IV", "assay": "Immunohistochemical staining of Collagen IV on formalin fixed paraffin embedded mouse brain sections after antigen retrieval with formaldehyde scavengers and enhancer", "design": "key: − being non-reactive; Immunoreactivity was scored on a scale of − to +++; Immunoreactivity was scored on a scale of − to +++; +++ being highly reactive", "details": "Table 8; 0.05% maleic acid alone or with aniline, concentrations in label; 45 minutes at 95° C.", "experimental": "12-month-old C57Bl6J mice were housed under controlled environment conditions on a condition al 12 hour light dark cycle. Following sacrifice, brains were post-fixed in 4% paraformaldehyde for 72 hours at […] and then transferred to 70% ethanol solution where they were stored at 4° C. Tissue was paraffin-processed using convention dehydration and embedding, and then sectioned at 5 μm intervals.\nTissues were deparaffinized and rehydrated. Slides were placed in a plastic Coplin jar containing either distilled water or a combination of formaldehyde scavengers in combination with an enhancer. Jars were covered with a loose fitting screw cap and heated in a pressure cooker for 45 minutes at 95° C. After heating, the Coplin jars were removed and allowed to cool and rinsed in TBST for five minutes.\nImmunohistochemical staining was performed using a three-step immunostaining technique using the ABC method. Briefly, all incubations were performed as follows: 1) primary antibodies were incubated overnight at 4° C., 2) secondary antibodies were incubated for 10 minutes at room temperature, 3) streptavidin-conjugated enzyme was incubated for 10 minutes at room temperature, 4) peroxidase substrate was incubated for 1 minute."}, "Angiotensin I": {"test_system": "Angiotensin I", "assay": "Mass spectrometry of formalin treated Angiotensin I after heating with aldehyde scavenging compounds", "details": "5% compound, 95° C., 45 minutes", "experimental": "Angiotensin I is treated with formalin at room temperature for 48 hours. […] Mass-spectrometry is used to analyze the compositions of the Angiotensin I before and after treatment by each compound. Samples of Angiotensin I before (FIG. 11A) and after (FIG. 11B) formalin treatments are used as the controls for the experiment. Peaks at m/z 1296 represent unmodified Angiotensin I. Peaks at m/z 1308 represent Angiotensin I with 1 methylene unit. Peaks at m/z 1320 represent Angiotensin I with 2 methylene units. Peaks at m/z 1338 represent Angiotensin I with 1 methylene unit and 1 hydroxymethylene group. Peaks at m/z 1350 represent Angiotensin I with 2 methylene units and 1 hydroxymethylene group."}, "GAPDH": {"test_system": "GAPDH", "assay": "Dot blot of GAPDH in formaldehyde treated tissues", "details": "maleic acid 1.6% to 12.8%, 95° C. for 30 minutes (FIG. 6B)"}, "Collagen IV [2]": {"test_system": "Collagen IV", "assay": "Antigen retrieval in adult human brain vasculature, Collagen IV staining", "details": "paraformaldehyde fixed paraffin embedded adult human brain tissue (FIG. 7)", "experimental": "Paraformaldehyde fixed paraffin embedded tissue from adult human brain is treated with 2,3-dimethylmaleic acid as an antigen retrieval method as described."}, "[3]": {"assay": "Autofluorescence of heated paraformaldehyde fixed paraffin embedded brain tissue", "details": "5% ascorbic acid; 70° C., 30 minutes; 488 nm excitation; versus tissue heated only in water", "from_the_text": "Images are captured at same exposure and time."}, "collagen IV [4]": {"test_system": "collagen IV", "assay": "Antigen retrieval and immunodetection of collagen IV in paraformaldehyde fixed tissues (general method)", "details": "0.05% maleic anhydride pretreatment; compared with TBST, low pH sodium citrate, pepsin (FIGS. 2A-2D)", "experimental": "The solution is heated to about 70° C. to about 95° C. for about 30 minutes. The ensuing chemical reaction enables the unmasking or retrieval of the chemical epitopes. The formaldehyde-fixed tissue is placed into the heated solution for about 30 minutes and then washed. The tissues can then be stained to detect the protein of interest."}, "collagen IV [5]": {"test_system": "collagen IV", "assay": "Fluorescent enhancement after antigen retrieval with addition of Triton, Collagen IV detection of blood vessels", "details": "0.5% Triton X-100 added to 5.0% ascorbic acid solution; 70° C., 30 minutes; 488 nm excitation; versus without Triton X-100", "from_the_text": "Images are captured using 488 nm excitation."}},
  "note": "“Also recorded” adds a separate entry of the source.",
  "data": [
    {"molecule": "O=C(O)/C=C\\C(=O)O", "note": "[0.05% Maleic acid, Maleic acid]", "values": [
      {"measurement": "antigen retrieval with visualization of the blood vessels", "setting": "blood vessels", "value": "successful antigen retrieval"},
      {"measurement": "conversion of modified ACTH (1, 2 or 3 methylene groups) into unmodified ACTH (m/z 2465)", "setting": "ACTH (18-39) peptide", "value": "convert almost all the modified ACTH"},
      {"measurement": "Result (immunoreactivity, Collagen IV staining)", "setting": "Collagen IV [1]", "value": "+"},
      {"measurement": "amount of Angiotensin I with 2 methylene units (m/z 1320)", "setting": "Angiotensin I", "value": "significantly reduce"},
      {"measurement": "content of unmodified Angiotensin I (m/z 1296)", "setting": "Angiotensin I", "value": "higher content of unmodified Angiotensin I"},
      {"measurement": "detection of GAPDH (dot blot)", "setting": "GAPDH", "value": "parallel increase in the detection of GAPDH"}
    ]},
    {"molecule": "C/C(C(=O)O)=C(\\C)C(=O)O", "note": "[2,3-dimethylmaleic acid]", "values": [
      {"measurement": "detection of blood vessels using Collagen IV", "setting": "Collagen IV [2]", "value": "Blood vessels were detected"}
    ]},
    {"molecule": "O=C1O[C@H]([C@@H](O)CO)C(O)=C1O", "note": "[ascorbic acid]", "values": [
      {"measurement": "conversion of modified ACTH (1, 2 or 3 methylene groups) into unmodified ACTH (m/z 2465)", "setting": "ACTH (18-39) peptide", "value": "convert almost all the modified ACTH"},
      {"measurement": "retrieval of formalin adducts of Angiotensin I", "setting": "Angiotensin I", "value": "significant retrieval of formalin adducts"},
      {"measurement": "tissue autofluorescence", "setting": "[3]", "value": "dramatically reduces visible autofluorescence; also recorded: reduction of autofluorescence"}
    ]},
    {"molecule": "O=C1C=CC(=O)O1", "note": "[maleic anhydride]", "values": [
      {"measurement": "antigen retrieval with visualization of the blood vessels", "setting": "blood vessels", "value": "successful antigen retrieval"},
      {"measurement": "antigen retrieval and immunodetection of collagen IV", "setting": "collagen IV [4]", "value": "Superior antigen retrieval and immunodetection"}
    ]},
    {"molecule": "Triton X-100", "values": [
      {"measurement": "staining evenness and fluorescence intensity after antigen retrieval", "setting": "collagen IV [5]", "value": "significant improvement in staining evenness and intensity; also recorded: enhancement of fluorescence"}
    ]}
  ]
}
